Like-named read-outs stand apart in the source and are kept apart here. Peptide text beside a SMILES is read from it. * marks the point of attachment. Stearoyl = CCCCCCCCCCCCCCCCCC(=O)*
What was measured:
HIV-1HXB2 Env = molecular target: T1, HIV-1HXB2 Env (Human immunodeficiency virus type 1 group M subtype B, UniProt P04578); assay: HIV-1HXB2 Env-mediated cell-cell fusion (HL2/3 effector, TZM-bl target, luciferase reporter); assay type: cell-based
T1 construct: HL2/3 cells, which stably express high levels of Env, Gag, Tat, Rev, and Nef proteins of the integrated HIV-1 molecular clone HXB2/3gpt; host or cells: HL2/3 cells (effector), cocultured with TZM-bl target cells
In short: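 TZM-bl target cells (1 x 10^4/well, plated overnight) were cocultured for 6 h at 37°C with HL2/3 effector cells (3 x 10^4/well) plus graded inhibitor concentrations. Fusion was read as tat-driven LTR luciferase activity.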

[1] = Rat IV, 6 mg/kg, n = 6; serum, LC-MS/MS, non-compartmental
NL4-3V38A pseudovirus = assay type: cell-based, HIV-1; conditions: T-20 resistant, mean ± SD of 3 assays in triplicate
Experimental: (§1) The inhibitory activities of inhibitors against HIV-1 pseudoviruses and replication-competent isolates were measured as described previously. Briefly, HIV-1 pseudoviruses were generated via the cotransfection of HEK293T cells with an Env-expressing plasmid and a backbone plasmid that encodes Env-defective, luciferase-expressing HIV-1 genome (pSG3Δenv). Viral stocks of replication-competent HIV-1 isolates were generated by transfecting viral molecular clones into HEK293T cells. […] Inhibitors were prepared in 3-fold dilutions, mixed with 100 TCID50 of a virus, and then incubated for 1 h at room temperature. […] Luciferase activity was measured as described above.

NL4-3V38M pseudovirus = assay type: cell-based, HIV-1; conditions: T-20 resistant, mean ± SD of 3 assays in triplicate
Experimental: as §1

NL4-3N43K pseudovirus = assay type: cell-based, HIV-1; conditions: T-20 resistant, mean ± SD of 3 assays in triplicate
Experimental: as §1

[2] = system: NL4-3I37T/N43K pseudovirus; assay type: cell-based, HIV-1; conditions: T-20 resistant, mean ± SD of 3 assays in triplicate
Experimental: as §1

NL4-3I37T pseudovirus = assay type: cell-based, HIV-1; conditions: T-20 resistant, mean ± SD of 3 assays in triplicate
Experimental: as §1

NL4-3Q40H pseudovirus = assay type: cell-based, HIV-1; conditions: T-20 resistant, mean ± SD of 3 assays in triplicate
Experimental: as §1

[3] = system: NL4-3G36S/V38M pseudovirus; assay type: cell-based, HIV-1; conditions: T-20 resistant, mean ± SD of 3 assays in triplicate
Experimental: as §1

[4] = molecular target: T2, gp41 NHR-derived target mimic peptide N39 (Human immunodeficiency virus type 1 group M subtype B, UniProt P04578); assay: CD spectroscopy of lipopeptides in complex with target mimic peptide N39; assay type: binding, HIV-1; design: [θ]222: unit not given here; conditions: complex with N39, each peptide 10 μM in PBS; representative of 2 assays
T2 construct: the gp41 NHR-derived target mimic peptide N39
Source text: Spectra were corrected by subtracting a solvent blank.

in vivo = conditions: rhesus monkey, sc, 3 mg/kg
Experimental: A single-cycle infection assay was performed to determine the inhibitory activity of the monkey sera on HIV-1NL4-3 pseudovirus. The 50% effective concentration was defined as the fold serum dilution that inhibited 50% of virus infection.

[5] = rat, in vivo, sc, 6 mg/kg
SHIVSF162P3 = assay: Therapeutic efficacy in chronically SHIV-infected rhesus monkeys; assay type: in vivo, Chinese rhesus macaques
[6] = lipopeptide alone, 10 μM in PBS, representative of 2 assays

T2 sequence (P04578 528-566): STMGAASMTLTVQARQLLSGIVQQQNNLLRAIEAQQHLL
T1 sequence (P04578 512-856): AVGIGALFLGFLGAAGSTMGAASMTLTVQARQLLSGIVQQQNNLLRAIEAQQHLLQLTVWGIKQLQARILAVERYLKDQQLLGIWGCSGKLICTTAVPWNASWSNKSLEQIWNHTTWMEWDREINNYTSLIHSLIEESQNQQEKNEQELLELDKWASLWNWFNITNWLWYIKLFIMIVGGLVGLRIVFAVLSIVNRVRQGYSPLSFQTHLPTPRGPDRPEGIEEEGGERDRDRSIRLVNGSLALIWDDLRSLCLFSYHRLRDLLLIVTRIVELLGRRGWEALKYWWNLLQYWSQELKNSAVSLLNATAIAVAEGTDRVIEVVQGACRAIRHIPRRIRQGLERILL

## CCCCCCCCCCCCCCCCCC(=O)NCCCC[C@H](NC(=O)[C@H](CCC(=O)O)NC(=O)[C@H](CC(C)C)NC(=O)[C@H](CCCCN)NC(=O)[C@H](CCCCN)NC(=O)[C@H](CC(C)C)NC(=O)[C@H](CCC(=O)O)NC(=O)[C@H](CCC(=O)O)NC(=O)[C@H](CCC(=O)O)NC(=O)[C@H](CC(N)=O)NC(=O)[C@H](CCCCN)NC(=O)[C@H](CCCCN)NC(=O)[C@H](CCC(N)=O)NC(=O)[C@H](CCC(N)=O)NC(=O)[C@H](CCC(=O)O)NC(=O)[C@H](CCC(=O)O)NC(=O)[C@H](C)NC(=O)[C@H](CCCCN)NC(=O)[C@H](CCCCN)NC(=O)[C@H](CC(C)C)NC(=O)[C@H](CC(C)C)NC(=O)[C@H](CCC(=O)O)NC(=O)[C@H](CCC(=O)O)NC(=O)[C@@H](NC(=O)[C@H](CCCCN)NC(=O)[C@H](CCC(N)=O)NC(=O)[C@H](CCC(=O)O)NC(=O)[C@H](Cc1c[nH]c2ccccc12)NC(C)=O)[C@@H](C)CC)C(N)=O [LP-80] (Ac-WEQKIEELLKKAEEQQKKNEEELKKLEK(Stearoyl)-NH2)
HIV-1HXB2 Env
  IC50: 0.0126 nM
[1]
  Cl_F_obs/Cl_obs: 21.31 ± 3.38 mL/h/kg
NL4-3V38A pseudovirus
  IC50: 0.23 ± 0.03 nM
NL4-3V38M pseudovirus
  IC50: 0.13 ± 0.02 nM
NL4-3N43K pseudovirus
  IC50: 0.25 ± 0.02 nM
[2]
  IC50: 3.79 ± 0.05 nM
NL4-3I37T pseudovirus
  IC50: 0.05 nM
NL4-3Q40H pseudovirus
  IC50: 0.13 ± 0.02 nM
[3]
  IC50: 0.07 ± 0.01 nM
[4]
  Helix content (%): 57%
  [θ]222: -18955
SC 3 mg/kg during the treatment
  Injection site reactions (ISRs): did not cause significant injection site reactions
After 1st treatment (DPI 263), before (DPI 191) 0.58 ± 0.14
  TG: 0.51 ± 0.07 mmol/L
After 1st treatment (DPI 263), before (DPI 191) 0.93 ± 0.33
  IgA: 1.05 ± 0.12 g/L
After 1st treatment (DPI 263), before (DPI 191) 1.28 ± 0.6
  IgM: 1.12 ± 0.56 g/L
After 1st treatment (DPI 263), before (DPI 191) 1.73 ± 0.44
  LDL-C: 1.56 ± 0.37 mmol/L
After 1st treatment (DPI 263), before (DPI 191) 2.36 ± 0.11
  Ca: 2.4 ± 0.06 mmol/L
After 1st treatment (DPI 263), before (DPI 191) 2.46 ± 0.07
  HDL-C: 1.96 ± 0.26 mmol/L
After 1st treatment (DPI 263), before (DPI 191) 3.08 ± 0.61
  UA: 3.25 ± 0.54 µmol/L
After 1st treatment (DPI 263), before (DPI 191) 4.32 ± 0.32
  GLU: 5.02 ± 0.98 mmol/L
After 1st treatment (DPI 263), before (DPI 191) 4.42 ± 0.19
  CHO: 3.90 ± 0.53 mmol/L
After 1st treatment (DPI 263), before (DPI 191) 4.6 ± 1.52
  ALP: 4.2 ± 1.3 U/L
After 1st treatment (DPI 263), before (DPI 191) 4.62 ± 0.13
  K: 4.56 ± 0.18 mmol/L
After 1st treatment (DPI 263), before (DPI 191) 6.11 ± 1.57
  TBIL: 5.52 ± 0.82 µmol/L
After 1st treatment (DPI 263), before (DPI 191) 7.12 ± 0.72
  IgG: 8.6 ± 1.74 g/L
After 1st treatment (DPI 263), before (DPI 191) 7.4 ± 1.82
  GGT: 9.2 ± 3.83 U/L
After 1st treatment (DPI 263), before (DPI 191) 8.14 ± 2
  UN: 8.38 ± 0.74 mmol/L
After 1st treatment (DPI 263), before (DPI 191) 32.4 ± 3.29
  AST: 30.8 ± 3.27 U/L
After 1st treatment (DPI 263), before (DPI 191) 46.4 ± 9.81
  CK: 56.6 ± 10.01 U/L
After 1st treatment (DPI 263), before (DPI 191) 74 ± 4.53
  TP: 71.26 ± 1.76 g/L
After 2nd treatment (DPI 508), before (DPI 325) 0.67 ± 0.13
  TG: 0.62 ± 0.21 mmol/L
After 2nd treatment (DPI 508), before (DPI 325) 0.76 ± 0.31
  IgA: 0.86 ± 0.18 g/L
After 2nd treatment (DPI 508), before (DPI 325) 1.41 ± 0.29
  IgM: 1.49 ± 0.29 g/L
After 2nd treatment (DPI 508), before (DPI 325) 1.74 ± 0.19
  P: 1.29 ± 0.24 mmol/L
After 2nd treatment (DPI 508), before (DPI 325) 2.46 ± 0.31
  HDL-C: 2.66 ± 0.45 mmol/L
After 2nd treatment (DPI 508), before (DPI 325) 2.54 ± 0.28
  UA: 2.54 ± 0.73 µmol/L
After 2nd treatment (DPI 508), before (DPI 325) 3.87 ± 0.44
  CHO: 4.02 ± 0.51 mmol/L
After 2nd treatment (DPI 508), before (DPI 325) 4.7 ± 0.2
  K: 4.64 ± 0.26 mmol/L
After 2nd treatment (DPI 508), before (DPI 325) 5.92 ± 0.9
  TBIL: 5.52 ± 0.9 µmol/L
After 2nd treatment (DPI 508), before (DPI 325) 9.34 ± 1.26
  UN: 7.99 ± 0.92 mmol/L
After 2nd treatment (DPI 508), before (DPI 325) 12.8 ± 3.27
  ALT: 13.2 ± 2.86 U/L
After 2nd treatment (DPI 508), before (DPI 325) 27.2 ± 3.11
  AST: 31.4 ± 4.45 U/L
After 2nd treatment (DPI 508), before (DPI 325) 54.6 ± 10.74
  CK: 55.4 ± 14.19 U/L
Blood biochemical parameters, CD4+ and CD8+ T lymphocytes monitored
  Systemic toxicities: No systemic toxicities were observed
Rhesus monkey, in vivo
  ALP: 7.4 ± 2.07 U/L
  ALT: 15.8 ± 3.27 U/L
  Ca: 2.19 ± 0.03 mmol/L
  GGT: 10.4 ± 1.95 U/L
  IgG: 8.52 ± 1.32 g/L
  LDH: 262.8 ± 48.26 U/L
  LDL-C: 1.32 ± 0.32 mmol/L
  P: 0.98 ± 0.07 mmol/L
  TP: 71.15 ± 2.86 g/L
In vivo
  AUC(0-inf): 601 ± 29.3 µg·h/mL
  AUC(0-t): 601 ± 29.3 µg·h/mL
  CL/F: 5 mL/h/kg
  Cmax: 24800 ± 10800 ng/mL
  MRT: 23.7 ± 2.26 h
  Tmax: 5.83 ± 3.82 h
  Vd/F: 0.0989 ± 0.0034 L/kg
  half-life: 824 ± 51.6 min
[5]
  Vd/F: 0.535 ± 0.251 L/kg
SHIVSF162P3; 1st treatment, SC 3 mg/kg once daily, monkeys K3 and K5, 8 days after treatment, detection limit 100 copies/ml
  Plasma viral load: declined to below the detection limit
SHIVSF162P3; 1st treatment, SC 3 mg/kg once every 4 days for 4 weeks, five monkeys
  Viral replication during treatment: fully controlled
SHIVSF162P3; 2nd treatment, SC 3 mg/kg twice weekly for 6 months
  Viral rebound during treatment: no viral rebound was detected
SHIVSF162P3; 2nd treatment, SC 3 mg/kg twice weekly, all five monkeys, day 4, before: mean 4.5 log10 RNA copies/ml
  Plasma viral load after one injection: below the detection limit
SHIVSF162P3; 2nd treatment, monkeys K1, K2, K4, K5, detection limit 100 copies/μg total DNA
  PBMC vDNA load: undetectable levels
SHIVSF162P3; after 1st treatment, all treated monkeys
  Time to viral load rebound after LP-80 was stopped: 10 to 21 days
SHIVSF162P3; after 2nd treatment, four monkeys (K1 to K4)
  Time to virus rebound after LP-80 cessation: 14 to 28 days
SHIVSF162P3; after 2nd treatment, monkey K5, 2 months after withdrawal
  Viral load after LP-80 withdrawal: remained undetectable
SHIVSF162P3; after a 2-month treatment (2nd treatment), declined from 3.7, quantitative PCR
  Mean PBMC vDNA load: 2.3 log10 vDNA copies/μg total DNA
[6]; [θ]222 / -33,000
  Helix content (%): 52%
[6]; ellipticity at 222 nm, 20-98°C, 2°C/min
  Tm (°C): 56 °C
